Results: the CheMixHub ionic liquid set

Test: xn = mol fraction of the nth substance listed

CCCC[n+]1ccccc1.[Br-] + CC[n+]1ccccc1.[Br-]
viscosity [mPa·s], 101 kPa
Settings	x2 = 0.085	x2 = 0.197	x2 = 0.269	x2 = 0.352	x2 = 0.52	x2 = 0.621	x2 = 0.689	x2 = 0.811	x2 = 0.903
353.1 K	–	–	–	–	93.7	–	–	–	–
358.1 K	–	–	–	–	77.4	–	–	–	–
363.1 K	–	–	–	86.2	64.2	53.8	–	–	–
368.1 K	–	–	80.4	70.3	53.7	45.6	–	–	–
373.1 K	–	–	65.3	57.8	45.1	38.8	–	–	–
378.1 K	–	–	53.5	47.8	38.1	33.2	30.3	–	–
383.1 K	–	–	44.2	39.9	32.4	28.6	26.3	–	–
388.1 K	45.3	40.8	36.8	33.5	27.7	24.7	22.9	19.85	–
393.1 K	37.4	34.2	30.9	28.3	23.9	21.5	20	17.61	–
398.1 K	31.1	28.9	26.2	24.2	20.7	18.8	17.59	15.64	14.32
403.1 K	26.2	24.7	22.3	20.8	18	16.46	15.52	13.94	12.86
408.1 K	22.2	21.2	19.2	18	15.75	14.52	13.76	12.45	11.57
413.1 K	19.1	18.5	16.65	15.64	13.88	12.86	12.25	11.17	10.44
418.1 K	16.53	16.2	14.56	13.73	12.29	11.46	10.97	10.06	9.44
423.1 K	14.47	14.35	12.83	12.15	10.96	10.26	9.85	9.08	8.56
428.1 K	12.78	12.83	11.41	10.82	9.83	9.23	8.89	8.23	7.77
433.1 K	11.41	–	10.23	9.72	8.87	8.35	8.06	7.49	7.08
438.1 K	10.3	10.55	9.25	8.8	8.05	7.59	7.34	6.83	6.46
443.1 K	9.39	–	8.44	8.03	7.36	6.93	6.71	6.25	5.91

O + CC[n+]1ccn(C)c1.CS(=O)(=O)[O-]
Settings	electrical conductivity [S/m]
298.15 K, 100 kPa, x1 = 1	0.00023

100 kPa, frequency 0.003 MHz, x2 = 0
Settings	electrical conductivity [S/m]
323.15 K	0.0005
333.15 K	0.0015

C1COCCO1 + CC[n+]1ccn(C)c1.F[B-](F)(F)F
100 kPa, x1 = 1
Settings	viscosity [mPa·s]
323.15 K	0.814
343.15 K	0.64

CC[n+]1ccn(C)c1.N#C[N-]C#N + CC[n+]1ccn(C)c1.F[B-](F)(F)F
298.1 K, 101 kPa
Settings	viscosity [mPa·s]
x2 = 0.0448	17.2
x2 = 0.6254	27.9
x2 = 0.7856	31.4
x2 = 0.9447	34.7

CCCCn1cc[n+](CCOCCOCC[n+]2ccn(CCCC)c2)c1.N#C[N-]C#N.N#C[N-]C#N + CC[n+]1ccn(C)c1.N#C[N-]C#N + O=S(=O)([N-]S(=O)(=O)C(F)(F)F)C(F)(F)F.[Li+]
100 kPa, x1 = 0.2388, x2 = 0.6693
Settings	electrical conductivity [S/m]
298 K	0.505
303 K	0.581
313 K	0.847
323 K	1.23
333 K	1.53
343 K	1.85

CC1COC(=O)O1 (stereo not given) + CC[n+]1ccn(C)c1.N#C[S-]
101.3 kPa, x2 = 0
Settings	viscosity [mPa·s]
293.15 K	2.945
308.15 K	1.919
333.15 K	1.293

CC[n+]1ccn(C)c1.N#C[N-]C#N + CC[n+]1ccn(C)c1.N#C[S-]
100 kPa
Settings	electrical conductivity [S/m]	viscosity [mPa·s]
298.15 K, x2 = 0.2585	2.68	16.36
308.15 K, x2 = 0.2585	3.45	12.4
318.15 K, x2 = 0	4.52	8.93
318.15 K, x2 = 0.7603	4.01	11.79
323.15 K, x2 = 0.5112	4.62	9.51
328.15 K, x2 = 0.2585	–	7.87
333.15 K, x2 = 0	–	6.37
338.15 K, x2 = 0.2585	–	6.49
348.15 K, x2 = 0.5112	–	5.87
353.15 K, x2 = 0.7603	–	5.7
